Experiments:
Body temperature in mice = type: in vivo, mouse; conditions: Zn 2 and 5 mg/kg i.p., 30 and 60 min after administration
Method: The experiments were performed on male Albino Swiss mice (23-25 g) and Sprague Dawley rats (200-250 g) from Charles River, Germany as well as […]-flx-YFP mice from Jackson Labs, Bangor ME and the Hen lab, respectively. The animals were kept under standard laboratory conditions with respect to lighting (light phase 7:00-19:00) and temperature (19-21 °C). Food and water were freely available. Each experimental group consisted of eight to ten animals. All of the animals were experimentally naive and were used only once in each test. The experiments were performed during the light period (9:00-14:00 h). All of the procedures were conducted according to the guidelines of the National Institutes of Health Animal Care and Use Committee and were approved by the Ethics Committees of the Institute of Pharmacology, Polish Academy of Sciences in Krakow and the Animal Care Committee, University of Ottawa. […] Controls were treated with the appropriate diluent, which was indicated as VEH on the graphs and in the tables. […] The results were expressed as a change in body temperature with respect to the basal body temperature, which was measured at the beginning of the experiments.

Sprague Dawley rats [1] = assay: Lower lip retraction (LLR) in rats; type: in vivo, rat; conditions: for Mean LLR score (A) VEH: max score 3/rat
Method: The experiments were performed on male Albino Swiss mice (23-25 g) and Sprague Dawley rats (200-250 g) from Charles River, Germany as well as […]-flx-YFP mice from Jackson Labs, Bangor ME and the Hen lab, respectively. The animals were kept under standard laboratory conditions with respect to lighting (light phase 7:00-19:00) and temperature (19-21 °C). Food and water were freely available. Each experimental group consisted of eight to ten animals. All of the animals were experimentally naive and were used only once in each test. The experiments were performed during the light period (9:00-14:00 h). All of the procedures were conducted according to the guidelines of the National Institutes of Health Animal Care and Use Committee and were approved by the Ethics Committees of the Institute of Pharmacology, Polish Academy of Sciences in Krakow and the Animal Care Committee, University of Ottawa. […] Controls were treated with the appropriate diluent, which was indicated as VEH on the graphs and in the tables. LLR was assessed according to the method described by Berendsen et al., [20]. The rats were individually placed in cages (30×25×25 cm) and were scored three times, 15, 30 and 45 min after the administration of Zn as follows: 0=lower incisors not visible, 0.5=partly visible and 1=completely visible. Zn was administered at doses of 2 and 5 mg Zn/kg (given as Zn hydroaspartate, Farmapol, Poland). The maximum total score was 3/rat. In addition, the effects of Zn and WAY-100635 (0.1 mg/kg; […] Sigma) were tested.

[2] = biological target: T1, human 5-HT1AR stably expressed in HEK293 cells (Homo sapiens, UniProt P08908); assay: Competition and competition-like (Zn titration) binding against 2.5 nM [3H]-8-OH-DPAT; conditions: 2.5 nM radioligand
T1 construct: The full-length human 5HTR1A complementary DNA (cDNA); membranes prepared from the cells
T1 sequence (P08908 1-422): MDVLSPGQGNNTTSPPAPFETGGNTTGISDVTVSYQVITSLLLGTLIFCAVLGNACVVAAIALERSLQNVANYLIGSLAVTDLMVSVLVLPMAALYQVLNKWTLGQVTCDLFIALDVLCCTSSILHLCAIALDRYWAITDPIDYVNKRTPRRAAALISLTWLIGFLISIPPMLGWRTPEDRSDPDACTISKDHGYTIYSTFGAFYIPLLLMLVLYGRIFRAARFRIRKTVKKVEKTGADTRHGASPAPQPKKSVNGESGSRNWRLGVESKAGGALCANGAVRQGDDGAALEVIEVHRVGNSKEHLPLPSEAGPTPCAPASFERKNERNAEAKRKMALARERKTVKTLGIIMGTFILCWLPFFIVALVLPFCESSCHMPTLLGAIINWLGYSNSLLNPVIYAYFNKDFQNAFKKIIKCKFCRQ
Method: The full-length human 5HTR1A complementary DNA (cDNA), which was cloned into the mammalian expression vector pcDNA3.1(+), was obtained from the Missouri S&T cDNA Resource Center (www.cdna.org). The receptor cDNA was stably transfected into human embryonic kidney cells (HEK293, ATCC) with the use of Lipofectamine 2000 (Invitrogen).
Cell pellets were thawed and homogenized in 20 volumes of 50 mM Tris–HCl buffer (pH 7.7) containing 0.1 mM EDTA and 10 mM MgCl2, using an Ultra Turrax tissue homogenizer. The pellets were then centrifuged twice at 35,000g for 20 min at 4 °C, with incubation for 15 min at 37 °C in between centrifugations. Membranes were aliquoted in tubes. Membrane protein concentrations were determined using the Pierce™ Coomassie (Bradford) Protein Assay Kit, with bovine serum albumin (BSA) as a standard.
The incubation buffer consisted of 50 mM Tris–HCl (pH 7.7), 10 mM MgCl2, 10 mM pargyline and 0.1 % ascorbic acid. Radioligand binding assays were performed by incubating 30 μg of protein of the membrane suspension in 96-well microtitre plates for 60 min at room temperature with shaking, in a total volume of 200 μl. The binding reactions were stopped by filtration through GF/C Unifilter plates using a harvester (PerkinElmer). […] Radioactivity was measured using a MicroBeta TriLux counter (PerkinElmer).

[3] = Body temperature in wild-type and 5-HT1A autoreceptor KO mice; type: in vivo, mouse; conditions: Zn 5 mg/kg (Zn chloride), 30 and 60 min
Excerpt: A conditional knockout approach was used to eliminate the 5-HT1AR in the raphe nuclei in adult mice. To create the conditional 5-HT1AR knockout mice, a TPH2-Cre-ER^T2 mouse line was crossed with a flx-5-HT1A-YFP mouse line. The TPH2-Cre-ER^T2 confers specificity such that only serotonin neurons, which express tryptophan hydroxylase 2 (TPH2), can express Cre recombinase to knockout the 5-HT1AR gene and allow for […] expression. Once the mice reached adulthood (approximately 5–6 postnatal weeks), tamoxifen (180 mg/kg) was injected i.p. every day for five consecutive days (the tamoxifen binds to the ER^T2 domain and enables Cre to enter the nucleus where it can excise the 5-HT1AR gene, allowing for YFP expression as a marker of recombination). The mice were then left undisturbed for at least 14 days to allow for recombination and the turnover of endogenous 5-HT1ARs.
A separate experiment was performed to measure the effect of Zn on rectal body temperature in wild-type and 5-HT1A autoreceptor KO mice; however, in this experiment, only the higher dose of Zn (5 mg Zn/kg; Zn chloride, Sigma) was used.

Sprague Dawley rats [4] = assay: Forced swim test (FST) in rats; type: in vivo, rat
Method: The test was carried out according to the method described previously [10]. On day one of the experiment, the animals were individually placed in plexiglass cylinders (40 cm in height, 18 cm in diameter), containing 25 cm of water maintained at 24–25 °C for a 15-min habituation period. After the rats were removed from the water, they were again placed in their home cages. On the second day, the rats were again placed in the cylinders, and the total duration of immobility was measured for a 5-min test period. Zn (1 or 2 mg Zn/ kg, given as Zn hydroaspartate) and 8-OH-DPAT (0.1 or 0.3 mg/kg) were administered alone or jointly 30 min before the test. WAY-100635 (0.1 mg/kg) was administered 15 min before the Zn treatment.

[Zn+2] [Zn, Zinc]
change in body temperature (Body temperature in mice): significantly and dose-dependently decreased body temperature
Mean LLR score (A) VEH (Sprague Dawley rats [1]; Zn 2 mg Zn/kg i.p. alone): 0.0±0.0
Mean LLR score (B) 8-OH-DPAT 1 mg/kg (Sprague Dawley rats [1]; Zn 2 mg/kg 45 min before 8-OH-DPAT 1 mg/kg): 1.17±0.98
Mean LLR score (A) VEH (Sprague Dawley rats [1]; Zn 5 mg Zn/kg i.p. alone): 0.0±0.0
Mean LLR score (B) 8-OH-DPAT 1 mg/kg (Sprague Dawley rats [1]; Zn 5 mg/kg 45 min before 8-OH-DPAT 1 mg/kg): 0.46±0.75
effect on LLR induced by 8-OH-DPAT (in words) (Sprague Dawley rats [1]; Zn 2 and 5 mg/kg or WAY-100635 0.1 mg/kg before 8-OH-DPAT 1 mg/kg): blocked the LLR induced by 8-OH-DPAT
induction of LLR (in words) (Sprague Dawley rats [1]; given alone: 8-OH-DPAT 1 mg/kg, Zn 2 and 5 mg/kg, WAY-100635 0.1 mg/kg): did not evoke LLR
increase of [3H]-8-OH-DPAT specific binding ([2]; 10 μM of Zn, bell-shaped titration curve): ~ 25%
effect on [3H]-8-OH-DPAT specific binding ([2]; Zn at >100 μM): inhibition
change in body temperature [3]: decreased the body temperature of the wild-type mice
immobility time in the FST (Sprague Dawley rats [4]; Zn 1 mg/kg, 30 min before test (Fig. 5a)): not 1 mg/kg significantly decreased the immobility time
immobility time in the FST (Sprague Dawley rats [4]; Zn 2 mg/kg, 30 min before test (Fig. 5a)): significantly decreased the immobility time
immobility time in the FST (Sprague Dawley rats [4]; Zn 2 and 5 mg/kg (Fig. 5b)): significantly decreased the immobility time
immobility time in the FST (Sprague Dawley rats [4]; Zn given jointly with 8-OH-DPAT at doses ineffective alone, vs VEH): significantly decreased the immobility time

From publication PMC5104769, “Concentration-Dependent Dual Mode of Zn Action at Serotonin 5-HT1A Receptors: In Vitro and In Vivo Studies” (Molecular neurobiology, 2015)
